Measurements taken from patent US8435561B2 (Besins Healthcare Luxembourg Sarl, priority 2001, dated 2013).

Assay: Comparative particle size study (Mastersizer 2000 laser particle sizer)
Format: physicochemical
Details: in sesame seed oil, olive oil, colza oil or almond oil, compared to that obtained in peanut oil

size distribution of progesterone: comparable
SMILES: CC(=O)[C@H]1CC[C@H]2[C@@H]3CCC4=CC(=O)CC[C@]4(C)[C@H]3CC[C@]12C [Micronized Progesterone, progesterone]
